Assay results published in PubChem BioAssay AID328 (DTP/NCI, 2004).
“And” between values parts separate entries of the source, which are not always exact repeats. Equal values may be shown once. Inconclusive results and toxic doses are left out. Rule for the calls: active = survival T/C of 150% or more; inactive = T/C below 125% in these data.

Tested on: BDF1 mice, P388 leukemia ip, median survival T/C
Experiment: NCI In Vivo Anticancer Drug Screen. Data for tumor model P388 Leukemia (intraperitoneal) in B6D2F1 (BDF1) mice
Details: endpoint: median survival time, higher = longer survival
In short: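 Steps: implant the tumour, treat one group with compound and another with vehicle, record survival, then divide treated by control.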

Measured: T/C

COc1cc(NS(C)(=O)=O)ccc1Nc1c2ccccc2nc2ccccc12
268 % of control and 104 % of control: dose: 9.37 mg/kg/injection, schedule: Q01DX009 (ip), vehicle: Klucel (hydroxypropylcellulose) (HPC)
active: dose: 0.25 mg/kg/injection, schedule: Q01DX009 (ip), vehicle: other 154 % of control | dose: 0.25 mg/kg/injection, schedule: Q01DX009 (ip), vehicle: saline 150 % of control | dose: 0.5 mg/kg/injection, schedule: Q01DX009 (ip), vehicle: other 161 % of control and 175 % of control | dose: 0.57 mg/kg/injection, schedule: Q01DX009 (ip), vehicle: Klucel (hydroxypropylcellulose) (HPC) 210 % of control | dose: 0.8 mg/kg/injection, schedule: Q01DX005 (ip), vehicle: other 182 % of control | dose: 0.85 mg/kg/injection, schedule: Q01DX009 (ip), vehicle: Klucel (hydroxypropylcellulose) (HPC) 195 % of control | dose: 1.0 mg/kg/injection, schedule: Q01DX009 (ip), vehicle: other 175 % of control and 195 % of control | dose: 1.3 mg/kg/injection, schedule: Q01DX009 (ip), vehicle: Klucel (hydroxypropylcellulose) (HPC) 173 % of control | dose: 1.56 mg/kg/injection, schedule: Q01DX009 (ip), vehicle: Klucel (hydroxypropylcellulose) (HPC) 166 % of control | dose: 1.6 mg/kg/injection, schedule: Q01DX005 (ip), vehicle: other 202 % of control | dose: 2.0 mg/kg/injection, schedule: Q01DX009 (ip), vehicle: Klucel (hydroxypropylcellulose) (HPC) 169 % of control | dose: 2.0 mg/kg/injection, schedule: Q01DX009 (ip), vehicle: other 193 % of control and 216 % of control | dose: 3.3 mg/kg/injection, schedule: Q01DX005 (ip), vehicle: other 220 % of control | dose: 3.6 mg/kg/injection, schedule: Q04DX003 (ip), vehicle: clinical formulation 192 % of control | dose: 3.6 mg/kg/injection, schedule: Q04DX003 (ip), vehicle: other 215 % of control | dose: 4.12 mg/kg/injection, schedule: Q01DX009 (ip), vehicle: Klucel (hydroxypropylcellulose) (HPC) 227 % of control and 204 % of control | dose: 5.4 mg/kg/injection, schedule: Q04DX003 (ip), vehicle: clinical formulation 210 % of control | dose: 6.0 mg/kg/injection, schedule: Q04DX003 (ip), vehicle: clinical formulation 211 % of control | dose: 6.0 mg/kg/injection, schedule: Q04DX003 (ip), vehicle: other 169 % of control | dose: 6.25 mg/kg/injection, schedule: Q01DX009 (ip), vehicle: Klucel (hydroxypropylcellulose) (HPC) 236 % of control and 259 % of control and 272 % of control | dose: 6.6 mg/kg/injection, schedule: Q04DX003 (ip), vehicle: other 236 % of control | dose: 6.6 mg/kg/injection, schedule: Q08DX002 (ip), vehicle: other 191 % of control | dose: 7.0 mg/kg/injection, schedule: Q04DX003 (ip), vehicle: lactic acid 225 % of control and 263 % of control and 272 % of control | dose: 7.0 mg/kg/injection, schedule: Q04DX003 (ip), vehicle: saline with Tween-80 240 % of control | dose: 9.0 mg/kg/injection, schedule: Q04DX003 (ip), vehicle: clinical formulation 215 % of control | dose: 10.0 mg/kg/injection, schedule: Q04DX003 (ip), vehicle: clinical formulation 248 % of control | dose: 10.0 mg/kg/injection, schedule: Q04DX003 (ip), vehicle: other 225 % of control and 272 % of control | dose: 10.0 mg/kg/injection, schedule: Q08DX002 (ip), vehicle: other 193 % of control | dose: 11.0 mg/kg/injection, schedule: Q04DX003 (ip), vehicle: lactic acid 291 % of control and 354 % of control and 541 % of control | dose: 11.0 mg/kg/injection, schedule: Q04DX003 (ip), vehicle: saline with Tween-80 295 % of control | dose: 12.5 mg/kg/injection, schedule: Q01DX009 (ip), vehicle: Klucel (hydroxypropylcellulose) (HPC) 260 % of control | dose: 15.0 mg/kg/injection, schedule: Q04DX003 (iv), vehicle: other 157 % of control | dose: 15.0 mg/kg/injection, schedule: Q08DX002 (ip), vehicle: other 245 % of control | dose: 16.0 mg/kg/injection, schedule: Q04DX003 (ip), vehicle: lactic acid 190 % of control | dose: 16.0 mg/kg/injection, schedule: Q04DX003 (ip), vehicle: saline with Tween-80 377 % of control | dose: 22.6 mg/kg/injection, schedule: Q04DX003 (iv), vehicle: other 170 % of control | dose: 22.6 mg/kg/injection, schedule: Q08DX002 (iv), vehicle: other 190 % of control | dose: 26.0 mg/kg/injection, schedule: Q04DX003 (iv), vehicle: other 203 % of control | dose: 34.0 mg/kg/injection, schedule: Q04DX003 (iv), vehicle: other 200 % of control | dose: 34.0 mg/kg/injection, schedule: Q08DX002 (iv), vehicle: other 200 % of control
inactive: dose: 0.8 mg/kg/injection, schedule: Q01DX005 (iv), vehicle: other 104 % of control and 109 % of control | dose: 0.8 mg/kg/injection, schedule: Q04DX003 (iv), vehicle: other 108 % of control | dose: 1.6 mg/kg/injection, schedule: Q01DX005 (iv), vehicle: other 115 % of control and 120 % of control | dose: 1.6 mg/kg/injection, schedule: Q04DX003 (iv), vehicle: other 107 % of control | dose: 3.3 mg/kg/injection, schedule: Q04DX003 (iv), vehicle: other 122 % of control | dose: 6.5 mg/kg/injection, schedule: Q04DX003 (iv), vehicle: other 116 % of control | dose: 6.6 mg/kg/injection, schedule: Q08DX002 (iv), vehicle: other 118 % of control | dose: 15.0 mg/kg/injection, schedule: Q04DX003 (ip), vehicle: other 111 % of control | dose: 16.7 mg/kg/injection, schedule: Q04DX003 (ip), vehicle: clinical formulation 118 % of control
